Measured values from PubChem BioAssay AID248 (DTP/NCI, 2004).
Where “and” joins values, the source holds several entries; their conditions need not be identical. Equal values may be shown once. Inconclusive results and toxic doses are left out.

Test system: L1210 leukemia ip in BDF1 mice, survival T/C
Experiment: NCI In Vivo Anticancer Drug Screen. Data for tumor model L1210 Leukemia (intraperitoneal) in B6D2F1 (BDF1) mice
Settings: higher = longer survival
How it was run: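 Tumor cells were implanted, animals were treated, and survival was followed. The result divides the treated measurement by the vehicle-control measurement.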

[1] = endpoint: mean survival time, dose: 4.0 mg/kg/injection, schedule: Q01DX015 (ip), vehicle: carboxymethylcellulose (CMC)
[2] = endpoint: mean survival time, dose: 8.0 mg/kg/injection, schedule: Q01DX015 (ip), vehicle: carboxymethylcellulose (CMC)
[3] = endpoint: mean survival time, dose: 16.0 mg/kg/injection, schedule: Q01DX015 (ip), vehicle: carboxymethylcellulose (CMC)

## Cn1c(N)nc2nc[nH]c2c1=S
endpoint: mean survival time, dose: 0.25 mg/kg/injection, schedule: Q01DX Z (ip), vehicle: carboxymethylcellulose (CMC)
  T/C: 104 % of control
endpoint: mean survival time, dose: 0.5 mg/kg/injection, schedule: Q01DX Z (ip), vehicle: carboxymethylcellulose (CMC)
  T/C: 101 % of control
endpoint: mean survival time, dose: 1.0 mg/kg/injection, schedule: Q01DX Z (ip), vehicle: carboxymethylcellulose (CMC)
  T/C: 104 % of control
endpoint: mean survival time, dose: 2.0 mg/kg/injection, schedule: Q01DX015 (ip), vehicle: carboxymethylcellulose (CMC)
  T/C: 103 % of control
endpoint: mean survival time, dose: 2.0 mg/kg/injection, schedule: Q01DX Z (ip), vehicle: carboxymethylcellulose (CMC)
  T/C: 107 % of control
endpoint: mean survival time, dose: 2.5 mg/kg/injection, schedule: Q01DX010 (ip), vehicle: saline
  T/C: 95 % of control and 91 % of control
endpoint: mean survival time, dose: 2.7 mg/kg/injection, schedule: Q01DX Z (ip), vehicle: methylcellulose (MC)
  T/C: 159 % of control
[1]
  T/C: 92 % of control
endpoint: mean survival time, dose: 4.0 mg/kg/injection, schedule: Q01DX Z (ip), vehicle: carboxymethylcellulose (CMC)
  T/C: 97 % of control and 106 % of control
endpoint: mean survival time, dose: 4.0 mg/kg/injection, schedule: Q01DX Z (ip), vehicle: methylcellulose (MC)
  T/C: 150 % of control
endpoint: mean survival time, dose: 5.0 mg/kg/injection, schedule: Q01DX009 (ip), vehicle: saline
  T/C: 101 % of control and 106 % of control
endpoint: mean survival time, dose: 5.0 mg/kg/injection, schedule: Q01DX010 (ip), vehicle: saline
  T/C: 97 % of control and 101 % of control
endpoint: mean survival time, dose: 6.0 mg/kg/injection, schedule: Q01DX Z (ip), vehicle: methylcellulose (MC)
  T/C: 123 % of control
[2]
  T/C: 107 % of control
endpoint: mean survival time, dose: 8.0 mg/kg/injection, schedule: Q01DX Z (ip), vehicle: carboxymethylcellulose (CMC)
  T/C: 118 % of control
endpoint: mean survival time, dose: 10.0 mg/kg/injection, schedule: Q01DX009 (ip), vehicle: saline
  T/C: 101 % of control and 104 % of control
endpoint: mean survival time, dose: 10.0 mg/kg/injection, schedule: Q01DX010 (ip), vehicle: saline
  T/C: 100 % of control and 91 % of control
[3]
  T/C: 104 % of control and 116 % of control
endpoint: mean survival time, dose: 16.0 mg/kg/injection, schedule: Q01DX Z (ip), vehicle: carboxymethylcellulose (CMC)
  T/C: 110 % of control
endpoint: mean survival time, dose: 20.0 mg/kg/injection, schedule: Q01DX009 (ip), vehicle: saline
  T/C: 106 % of control and 113 % of control
endpoint: mean survival time, dose: 20.0 mg/kg/injection, schedule: Q01DX010 (ip), vehicle: saline
  T/C: 94 % of control and 95 % of control and 116 % of control
endpoint: mean survival time, dose: 32.0 mg/kg/injection, schedule: Q01DX015 (ip), vehicle: carboxymethylcellulose (CMC)
  T/C: 123 % of control
endpoint: mean survival time, dose: 40.0 mg/kg/injection, schedule: Q01DX009 (ip), vehicle: saline
  T/C: 119 % of control
endpoint: mean survival time, dose: 40.0 mg/kg/injection, schedule: Q01DX010 (ip), vehicle: saline
  T/C: 97 % of control
endpoint: mean survival time, dose: 64.0 mg/kg/injection, schedule: Q01DX010 (iv), vehicle: saline
  T/C: 102 % of control
endpoint: mean survival time, dose: 64.0 mg/kg/injection, schedule: Q01DX015 (ip), vehicle: carboxymethylcellulose (CMC)
  T/C: 123 % of control
endpoint: mean survival time, dose: 80.0 mg/kg/injection, schedule: Q01DX010 (ip), vehicle: saline
  T/C: 97 % of control
endpoint: mean survival time, dose: 128.0 mg/kg/injection, schedule: Q01DX010 (iv), vehicle: saline
  T/C: 100 % of control
endpoint: mean survival time, dose: 128.0 mg/kg/injection, schedule: Q01DX015 (ip), vehicle: carboxymethylcellulose (CMC)
  T/C: 115 % of control
endpoint: mean survival time, dose: 256.0 mg/kg/injection, schedule: Q01DX010 (iv), vehicle: saline
  T/C: 108 % of control
endpoint: median survival time, dose: 5.0 mg/kg/injection, schedule: Q01DX009 (ip), vehicle: saline
  T/C: 105 % of control and 106 % of control
endpoint: median survival time, dose: 10.0 mg/kg/injection, schedule: Q01DX009 (ip), vehicle: saline
  T/C: 110 % of control
endpoint: median survival time, dose: 20.0 mg/kg/injection, schedule: Q01DX009 (ip), vehicle: saline
  T/C: 110 % of control and 112 % of control
endpoint: median survival time, dose: 40.0 mg/kg/injection, schedule: Q01DX009 (ip), vehicle: saline
  T/C: 120 % of control

## CC1(C)C2CCC(OC(=O)c3ccc([N+](=O)[O-])cc3)C1C2 (stereo not given)
endpoint: mean survival time, dose: 50.0 mg/kg/injection, schedule: Q01DX001 (ip), vehicle: carboxymethylcellulose (CMC)
  T/C: 102 % of control
endpoint: mean survival time, dose: 100.0 mg/kg/injection, schedule: Q01DX001 (ip), vehicle: carboxymethylcellulose (CMC)
  T/C: 102 % of control
endpoint: mean survival time, dose: 200.0 mg/kg/injection, schedule: Q01DX001 (ip), vehicle: carboxymethylcellulose (CMC)
  T/C: 93 % of control
endpoint: mean survival time, dose: 400.0 mg/kg/injection, schedule: Q01DX001 (ip), vehicle: carboxymethylcellulose (CMC)
  T/C: 87 % of control

## CCOc1ccc(NC(=O)Nc2cccc(F)c2)cc1
endpoint: mean survival time, dose: 12.5 mg/kg/injection, schedule: Q01DX009 (ip), vehicle: Klucel (hydroxypropylcellulose) (HPC)
  T/C: 88 % of control
endpoint: mean survival time, dose: 25.0 mg/kg/injection, schedule: Q01DX009 (ip), vehicle: Klucel (hydroxypropylcellulose) (HPC)
  T/C: 90 % of control
endpoint: mean survival time, dose: 50.0 mg/kg/injection, schedule: Q01DX009 (ip), vehicle: Klucel (hydroxypropylcellulose) (HPC)
  T/C: 88 % of control
endpoint: mean survival time, dose: 200.0 mg/kg/injection, schedule: Q01DX009 (ip), vehicle: Klucel (hydroxypropylcellulose) (HPC)
  T/C: 90 % of control

## O=c1cc(CO)occ1O.O=c1cc(CO)occ1O.[O]=[V]
[1]
  T/C: 101 % of control
[2]
  T/C: 105 % of control
endpoint: mean survival time, dose: 12.5 mg/kg/injection, schedule: Q01DX009 (ip), vehicle: saline
  T/C: 87 % of control
endpoint: mean survival time, dose: 12.5 mg/kg/injection, schedule: Q04DX003 (ip), vehicle: saline
  T/C: 92 % of control
[3]
  T/C: 106 % of control
endpoint: mean survival time, dose: 25.0 mg/kg/injection, schedule: Q01DX009 (ip), vehicle: saline
  T/C: 92 % of control
endpoint: mean survival time, dose: 25.0 mg/kg/injection, schedule: Q04DX003 (ip), vehicle: saline
  T/C: 91 % of control
endpoint: mean survival time, dose: 50.0 mg/kg/injection, schedule: Q04DX003 (ip), vehicle: saline
  T/C: 102 % of control
